# How the values were obtained:
# Assay in all cases: relative viability (nuclei count vs DMSO), 5 days (fraction); higher = more cells survive
# Bleomycin + Pemetrexed = compound: CC1=C(N=C(N=C1N)[C@H](CC(=O)N)NC[C@@H](C(=O)N)N)C(=O)N[C@@H]([C@H](C2=CN=CN2)OC3C(C(C(C(O3)CO)O)O)OC4C(C(C(C(O4)CO)O)OC(=O)N)O)C(=O)N[C@H](C)[C@H]([C@H](C)C(=O)N[C@@H]([C@@H](C)O)C(=O)NCCC5=NC(=CS5)C6=NC(=CS6)C(=O)NCCC[S+](C)C)O [Bleomycin] + Nc1nc2[nH]cc(CCc3ccc(C(=O)N[C@@H](CCC(=O)O)C(=O)O)cc3)c2c(=O)[nH]1 [Pemetrexed] (partner 0.2 µM); conditions: main component drawn
# In short: (§1)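 Lung cancer cell lines, seeded in 1536-well plates, were treated the following day by pin tool with a single drug or with five library-drug doses (not always all listed) in √10 steps on top of a fixed anchor-drug dose. Cells were fixed and nuclei stained in one step after 5 days, and nuclei were counted. Relative viability is the nuclei count for treated wells divided by that for vehicle wells, reported as medians of duplicate plates.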
# Bleomycin + Olaparib = compound: CC1=C(N=C(N=C1N)[C@H](CC(=O)N)NC[C@@H](C(=O)N)N)C(=O)N[C@@H]([C@H](C2=CN=CN2)OC3C(C(C(C(O3)CO)O)O)OC4C(C(C(C(O4)CO)O)OC(=O)N)O)C(=O)N[C@H](C)[C@H]([C@H](C)C(=O)N[C@@H]([C@@H](C)O)C(=O)NCCC5=NC(=CS5)C6=NC(=CS6)C(=O)NCCC[S+](C)C)O [Bleomycin] + O=C(c1cc(Cc2n[nH]c(=O)c3ccccc23)ccc1F)N1CCN(C(=O)C2CC2)CC1 [Olaparib] (partner 8 µM); conditions: main component drawn
# In short: as §1
# Etoposide + Dasatinib = compound: COc1cc([C@@H]2c3cc4c(cc3[C@@H](O[C@@H]3O[C@@H]5CO[C@@H](C)O[C@H]5[C@H](O)[C@H]3O)[C@H]3COC(=O)[C@H]23)OCO4)cc(OC)c1O [Etoposide] + Cc1nc(Nc2ncc(C(=O)Nc3c(C)cccc3Cl)s2)cc(N2CCN(CCO)CC2)n1 [Dasatinib] (partner 0.075 µM)
# In short: as §1
# Bleomycin + Alpelisib = compound: CC1=C(N=C(N=C1N)[C@H](CC(=O)N)NC[C@@H](C(=O)N)N)C(=O)N[C@@H]([C@H](C2=CN=CN2)OC3C(C(C(C(O3)CO)O)O)OC4C(C(C(C(O4)CO)O)OC(=O)N)O)C(=O)N[C@H](C)[C@H]([C@H](C)C(=O)N[C@@H]([C@@H](C)O)C(=O)NCCC5=NC(=CS5)C6=NC(=CS6)C(=O)NCCC[S+](C)C)O [Bleomycin] + Cc1nc(NC(=O)N2CCC[C@H]2C(N)=O)sc1-c1ccnc(C(C)(C)C(F)(F)F)c1 [Alpelisib] (partner 2 µM); conditions: main component drawn
# In short: as §1
cell line,measurement,setting,value
UMC-11,relative viability,Bleomycin + Pemetrexed; first compound 0.01 µM,0.74
same,relative viability,Bleomycin + Pemetrexed; first compound 0.03162 µM,0.756
same,relative viability,Bleomycin + Pemetrexed; first compound 0.1 µM,0.74
same,relative viability,Bleomycin + Pemetrexed; first compound 0.3162 µM,0.598
same,relative viability,Bleomycin + Pemetrexed; first compound 1 µM,0.414
same,relative viability,Bleomycin + Olaparib; first compound 0.01 µM,0.36
same,relative viability,Bleomycin + Olaparib; first compound 0.03162 µM,0.342
same,relative viability,Bleomycin + Olaparib; first compound 0.1 µM,0.371
same,relative viability,Bleomycin + Olaparib; first compound 0.3162 µM,0.393
same,relative viability,Bleomycin + Olaparib; first compound 1 µM,0.271
same,relative viability,Etoposide + Dasatinib; first compound 0.01 µM,0.455
same,relative viability,Etoposide + Dasatinib; first compound 0.03162 µM,0.38
same,relative viability,Etoposide + Dasatinib; first compound 0.1 µM,0.316
same,relative viability,Etoposide + Dasatinib; first compound 0.3162 µM,0.38
same,relative viability,Etoposide + Dasatinib; first compound 1 µM,0.259
same,relative viability,Bleomycin + Alpelisib; first compound 0.01 µM,0.873
same,relative viability,Bleomycin + Alpelisib; first compound 0.03162 µM,0.935
same,relative viability,Bleomycin + Alpelisib; first compound 0.1 µM,0.826
same,relative viability,Bleomycin + Alpelisib; first compound 0.3162 µM,0.598
same,relative viability,Bleomycin + Alpelisib; first compound 1 µM,0.44
